Experimental data: US20130210057A1, “USE OF LABEL-FREE BIOSENSORS TO UNDERSTAND AND IDENTIFY TREATMENT FOR CANCER” (CORNING INCORPORATED, priority 2012, published 2013)
Entries after “also recorded” stand apart in the source; their conditions may differ. Read-outs that look alike come from different tables or passages of the source. Ends that are not written are not given here.

Assays:
HCT116 PTEN null cells [1] = test: cAMP-Glo assay; type: cell-based, human; settings: 15 minutes incubation
Description: (§1) Cells were cultured in the McCoy's 5a complete growth medium overnight. The next day cAMP-Glo assay was performed according to manufacturer's instruction (Promega, Cat# V1502). Briefly, cell culture medium was removed by flipping the plate. […] Luminescence was measured using Tecan Salim II plate reader.
(§2) To screen endogenous receptors and their coupled signaling pathways, we first assembled a GPCR agonist focused library (Table 1). The library consists of 120 GPCR agonists covering over 150 known GPCRs, based on their known pharmacology including polypharmacology. For small molecule chemical agonists, the dose used was 10 micromolar. For peptide agonists, the dose used was 1 micromolar. For lipid agonists, the dose used was also 1 micromolar. For both peptides and lipids, these agonists were suspended in a solution containing 0.05% bovine […] to increase their stability.
(§3) cAMP assays were employed to investigate endogenous Gs-coupled receptors. FIG. 2 is a graph illustrating cAMP accumulation induced by GPCR agonists. The percentage of cAMP level after normalized to the forskolin-induced cAMP increase was plotted as a function of GPCR agonists. PCT116 parental (squares) was compared with HCT116-PTEN Null (diamonds) cell line.

HCT116 parental cells [2] = test: cAMP-Glo assay; type: cell-based, human; settings: 15 minutes incubation
Description: as §1, §2, §3

HCT116 PTEN null cells [3] = test: Calcium flux assay (FLUO-4, FDSS/FLIPR); type: cell-based, human; settings: small molecule agonists 10 micromolar, peptide and lipid agonists 1 micromolar
Description: as §2

HCT116 parental cells [4] = test: Calcium flux assay (FLUO-4, FDSS/FLIPR); type: cell-based, human; settings: small molecule agonists 10 micromolar, peptide and lipid agonists 1 micromolar
Description: as §2

[5] = test system: HCT116-PTEN Null cell line; test: Label-free RWG biosensor DMR assay; type: cell-based, human; settings: for kinase inhibitor drug-induced DMR signal: HCT116-PTEN null; for kinase inhibitor drug-induced DMR signal / sensitivity of kinase inhibitor drug-induced DMR to PTEN deletion: 16 μM; for sensitivity of kinase inhibitor drug-induced DMR to PTEN deletion: PTEN null vs parental
Description: (§4) EPIC® beta version wavelength interrogation system (Corning Inc., NY) was used for whole cell sensing. This system consists of a temperature-control unit, an optical detection unit, and an on-board liquid handling unit with robotics. The detection unit is centered on integrated fiber optics, and enables kinetic measures of cellular responses with a time interval of ˜15 sec. Also EPIC® commercial systems were used, with a liquid handler accessory attached to EPIC® reader system. Also, an Epic® RWG imager can be used.
(§5) The resonant waveguide grating (RWG) biosensor is capable of detecting minute changes in local index of refraction near the sensor surface and the waveguide thin film having gratings provide a cell culture surface. Since the local index of refraction within a cell is a function of density and its distribution of biomass (e.g., proteins, molecular complexes), the biosensor exploits its evanescent wave to non-invasively detect ligand-induced Dynamic Mass Redistribution (DMR) in native cells. When a cell is stimulated, it responds. That response is a redistribution of biomass in the cell. Upon stimulation, proteins, protein complexes, and/or organelles in the cells move. The evanescent wave extends into the cells and exponentially decays over distance, leading to a characteristic sensing depth of ˜150 nm. Any optical response mediated through receptor activation only represents an average over the portion of the cell that the evanescent wave is sampling. The aggregation of many cellular events downstream to the receptor activation leads to a DMR signal having characteristic kinetics and amplitudes.
(§6) All assays were carried out at a controlled temperature (28° C.). At least two independent sets of experiments, each with at least three replicates, were performed.

[6] = test system: HCT116 parental cell line; test: Label-free RWG biosensor DMR assay; type: cell-based, human; settings: for kinase inhibitor drug-induced DMR signal: 16 μM
Description: as §4, §5, §6

[7] = test system: IGF1-induced DMR in HCT116 parental cell line; test: DMR reporter assay: modulation of IGF1-induced DMR by kinase inhibitor pretreatment; settings: 2 nM IGF1; for alteration of the late response of the IGF1 DMR (signal at 50 min poststimulation): about 1 hr pretreatment at different doses; for impact on the early P-DMR amplitude of the IGF1 DMR: about 1 hr pretreatment
[8] = test system: IGF1-induced DMR in HCT116-PTEN Null cell line; test: as above; settings: 2 nM IGF1; for alteration of the late response of the IGF1 DMR (signal at 50 min poststimulation) / impact on the early P-DMR amplitude of the IGF1 DMR: HCT116-PTEN Null; for alteration of the late response of the IGF1 DMR (signal at 50 min poststimulation): about 1 hr pretreatment at different doses; for impact on the early P-DMR amplitude of the IGF1 DMR / potency to increase the late IGF1 response, PTEN-deleted vs parental cell line: about 1 hr pretreatment

## CCNC(=O)[C@H]1O[C@@H](n2cnc3c(N)nc(NCCc4ccc(CCC(=O)O)cc4)nc32)[C@H](O)[C@@H]1O [CGS21680]
HCT116 PTEN null cells [1]
  cAMP accumulation (normalized to forskolin-induced cAMP increase): detectable cAMP accumulation
HCT116 parental cells [2]
  cAMP accumulation (normalized to forskolin-induced cAMP increase): detectable cAMP accumulation

## CCCCC[C@H](O)/C=C/[C@H]1[C@H](O)CC(=O)[C@@H]1C/C=C\CCCC(=O)O [PGE2, Peostaglandin E2]
HCT116 PTEN null cells [1]
  cAMP accumulation (normalized to forskolin-induced cAMP increase): detectable cAMP accumulation
HCT116 parental cells [2]
  cAMP accumulation (normalized to forskolin-induced cAMP increase): detectable cAMP accumulation

## O=c1ccn([C@@H]2O[C@H](COP(=O)(O)OP(=O)(O)O)[C@@H](O)[C@H]2O)c(=O)[nH]1 [UDP]
HCT116 PTEN null cells [3]
  Ca^2+ mobilization (fold increase in fluorescence, FLIPR): robust Ca^2+ mobilization
HCT116 parental cells [4]
  Ca^2+ mobilization (fold increase in fluorescence, FLIPR): robust Ca^2+ mobilization

## Nc1ncnc2c1ncn2[C@@H]1O[C@H](CO)[C@@H](O)[C@H]1O [adenosine, Adenosine]
[5]
  effect of cholera toxin (CTx) pretreatment on the agonist DMR: almost completely suppressed
[5]; 10 μM agonist (EGF, IGF1 1 μM)
  agonist DMR in PTEN deleted cell line compared to parental cell line (sensitivity to PTEN deletion): greatly different
[5]; HCT116-PTEN Null, 10 μM agonist
  receptor / signaling pathway activated (pathway deconvolution of DMR with toxins): primarily activates endogenous Gs-coupled adenosine A2B receptors
[5]; HCT116-PTEN Null, PTX 100 ng/ml overnight, 10 μM agonist
  effect of pertussis toxin (PTx) pretreatment on the agonist DMR: only accelerated
[6]
  effect of cholera toxin (CTx) pretreatment on the agonist DMR: almost completely suppressed
[6]; HCT116 parental, 10 μM agonist
  receptor / signaling pathway activated (pathway deconvolution of DMR with toxins): primarily activates endogenous Gs-coupled adenosine A2B receptors
[6]; HCT116 parental, PTX 100 ng/ml overnight, 10 μM agonist
  effect of pertussis toxin (PTx) pretreatment on the agonist DMR: only accelerated

## CNC[C@H](O)c1ccc(O)c(O)c1 [epinephrine, (−)epinephrine]
[5]
  agonist DMR in PTEN deleted cell line compared to parental cell line (sensitivity to PTEN deletion): greatly differed
  effect of pertussis toxin (PTx) pretreatment on the agonist DMR: little effect
  receptor / signaling pathway activated (pathway deconvolution of DMR with toxins): primarily activates endogenous Gs-coupled beta1-adrenergic receptor
[6]
  effect of pertussis toxin (PTx) pretreatment on the agonist DMR: little effect
  receptor / signaling pathway activated (pathway deconvolution of DMR with toxins): primarily activates endogenous Gs-coupled beta1-adrenergic receptor

## C#Cc1cccc(Nc2ncnc3cc(OCCOC)c(OCCOC)cc23)c1 [erlotinib]
[7]
  alteration of the late response of the IGF1 DMR (signal at 50 min poststimulation): increased in the dose-dependent manner
  impact on the early P-DMR amplitude of the IGF1 DMR: little impact
[5]
  kinase inhibitor drug-induced DMR signal: very small DMR signals
[6]; HCT116 parental
  kinase inhibitor drug-induced DMR signal: very small DMR signals
[8]
  alteration of the late response of the IGF1 DMR (signal at 50 min poststimulation): increased in the dose-dependent manner
  impact on the early P-DMR amplitude of the IGF1 DMR: little impact
  potency to increase the late IGF1 response, PTEN-deleted vs parental cell line: lower

## CO[C@H]1C[C@@H]2CC[C@@H](C)[C@@](O)(O2)C(=O)C(=O)N2CCCC[C@H]2C(=O)O[C@H]([C@H](C)C[C@@H]2CC[C@@H](OCCO)[C@H](OC)C2)CC(=O)[C@H](C)/C=C(\C)[C@@H](O)[C@@H](OC)C(=O)[C@H](C)C[C@H](C)/C=C/C=C/C=C/1C [everolimus]
[5]
  sensitivity of kinase inhibitor drug-induced DMR to PTEN deletion: suppressed or decreased the kinetics
[6]; HCT116 parental
  kinase inhibitor drug-induced DMR signal: detectable DMR

## C=C[C@@]1(C)CC(=O)[C@]2(O)[C@@]3(C)[C@@H](O)CCC(C)(C)[C@@H]3[C@H](O)[C@H](OC(C)=O)[C@@]2(C)O1 [forskolin]
[5]; HCT116-PTEN Null, GPCR agonist library profiling, 3-45 min poststimulation
  DMR signal amplitude: greater than 80 picometer
[6]; HCT116 parental, GPCR agonist library profiling, 3-45 min poststimulation
  DMR signal amplitude: greater than 80 picometer

## COc1cc2ncnc(Nc3ccc(F)c(Cl)c3)c2cc1OCCCN1CCOCC1 [gefitinib]
[7]
  alteration of the late response of the IGF1 DMR (signal at 50 min poststimulation): increased in the dose-dependent manner
  impact on the early P-DMR amplitude of the IGF1 DMR: little impact
[8]
  alteration of the late response of the IGF1 DMR (signal at 50 min poststimulation): increased in the dose-dependent manner
  impact on the early P-DMR amplitude of the IGF1 DMR: little impact
  potency to increase the late IGF1 response, PTEN-deleted vs parental cell line: lower

## Cc1ccc(NC(=O)c2ccc(CN3CCN(C)CC3)cc2)cc1Nc1nccc(-c2cccnc2)n1 [imatinib]
[7]
  alteration of the late response of the IGF1 DMR (signal at 50 min poststimulation): dose-dependently increased
[5]
  sensitivity of kinase inhibitor drug-induced DMR to PTEN deletion: sensitive; also recorded: great sensitivity

## CS(=O)(=O)CCNCc1ccc(-c2ccc3ncnc(Nc4ccc(OCc5cccc(F)c5)c(Cl)c4)c3c2)o1 [lapatinib]
[5]
  kinase inhibitor drug-induced DMR signal: did not result in any detectable DMR
[6]; HCT116 parental
  kinase inhibitor drug-induced DMR signal: did not result in any detectable DMR

## Cc1cn(-c2cc(NC(=O)c3ccc(C)c(Nc4nccc(-c5cccnc5)n4)c3)cc(C(F)(F)F)c2)cn1 [nilotinib]
[5]
  sensitivity of kinase inhibitor drug-induced DMR to PTEN deletion: sensitive

## CNC(=O)c1cc(Oc2ccc(NC(=O)Nc3ccc(Cl)c(C(F)(F)F)c3)cc2)ccn1 [sorafenib]
[5]
  kinase inhibitor drug-induced DMR signal: did not result in any detectable DMR
[6]; HCT116 parental
  kinase inhibitor drug-induced DMR signal: did not result in any detectable DMR

## CO[C@H]1C[C@@H]2CC[C@@H](C)[C@@](O)(O2)C(=O)C(=O)N2CCCC[C@H]2C(=O)O[C@H]([C@H](C)C[C@@H]2CC[C@@H](OC(=O)C(C)(CO)CO)[C@H](OC)C2)CC(=O)[C@H](C)/C=C(\C)[C@@H](O)[C@@H](OC)C(=O)[C@H](C)C[C@H](C)/C=C/C=C/C=C/1C [temsirolimus]
[5]
  sensitivity of kinase inhibitor drug-induced DMR to PTEN deletion: suppressed or decreased the kinetics
[6]; HCT116 parental
  kinase inhibitor drug-induced DMR signal: detectable DMR

## Adrenomedulin (YRQSMNNFQGLRSFGCRFGTCTVQKLAHQIYQFTDKDKDNVAPRSKISPQGY; ends and bridges not checked; cysteine pairing not given here; UniProt P35318 95-146, looked up) [peptide agonist of adrenomedulin receptor]
HCT116 PTEN null cells [1]
  cAMP accumulation (normalized to forskolin-induced cAMP increase): detectable cAMP accumulation
HCT116 parental cells [2]
  cAMP accumulation (normalized to forskolin-induced cAMP increase): detectable cAMP accumulation

## Calcitonin (CGNLSTCMLGTYTQDFNKFHTFPQTAIGVGAP; ends and bridges not checked; cysteine pairing not given here; UniProt P01258 85-116, looked up) [peptide agonist of calcitonin receptor]
HCT116 PTEN null cells [1]
  cAMP accumulation (normalized to forskolin-induced cAMP increase): detectable cAMP accumulation
HCT116 parental cells [2]
  cAMP accumulation (normalized to forskolin-induced cAMP increase): detectable cAMP accumulation

## EGF: epidermal growth factor (EGF) (NSDSECPLSHDGYCLHDGVCMYIEALDKYACNCVVGYIGERCQYRDLKWWELR; Epidermal growth factor; UniProt P01133 971-1023, looked up)
[5]; 10 μM agonist (EGF, IGF1 1 μM)
  agonist DMR in PTEN deleted cell line compared to parental cell line (sensitivity to PTEN deletion): insensitive

## IGF1: insulin growth factor-1 (IGF1)
[5]; 10 μM agonist (EGF, IGF1 1 μM)
  agonist DMR in PTEN deleted cell line compared to parental cell line (sensitivity to PTEN deletion): clear effects; also recorded: greater sensitivity
[5]; HCT116-PTEN Null, untreated, 10 μM agonist (EGF, IGF1 1 μM)
  agonist-induced DMR signal: robust DMR signal
[6]; HCT116 parental, untreated, 10 μM agonist (EGF, IGF1 1 μM)
  agonist-induced DMR signal: robust DMR signal

## Vasoactive intestinal peptide (HSDAVFTDNYTRLRKQMAVKKYLNSILN; ends and bridges not checked; UniProt P01282 125-152, looked up) [VIP]
HCT116 PTEN null cells [1]
  cAMP accumulation (normalized to forskolin-induced cAMP increase): detectable cAMP accumulation
HCT116 parental cells [2]
  cAMP accumulation (normalized to forskolin-induced cAMP increase): detectable cAMP accumulation
